IC50 data for 9 compounds are collected here from ChEMBL document CHEMBL1130987, “The asymmetric synthesis and in vitro characterization of succinyl mercaptoalcohol and mercaptoketone inhibitors of matrix metalloproteinases” (Bioorg Med Chem Lett, 1998).

Bounds are passed on as bounds.

One assay has as its target T1, Interstitial collagenase (Homo sapiens, UniProt P03956).
T1 sequence (P03956 whole entry): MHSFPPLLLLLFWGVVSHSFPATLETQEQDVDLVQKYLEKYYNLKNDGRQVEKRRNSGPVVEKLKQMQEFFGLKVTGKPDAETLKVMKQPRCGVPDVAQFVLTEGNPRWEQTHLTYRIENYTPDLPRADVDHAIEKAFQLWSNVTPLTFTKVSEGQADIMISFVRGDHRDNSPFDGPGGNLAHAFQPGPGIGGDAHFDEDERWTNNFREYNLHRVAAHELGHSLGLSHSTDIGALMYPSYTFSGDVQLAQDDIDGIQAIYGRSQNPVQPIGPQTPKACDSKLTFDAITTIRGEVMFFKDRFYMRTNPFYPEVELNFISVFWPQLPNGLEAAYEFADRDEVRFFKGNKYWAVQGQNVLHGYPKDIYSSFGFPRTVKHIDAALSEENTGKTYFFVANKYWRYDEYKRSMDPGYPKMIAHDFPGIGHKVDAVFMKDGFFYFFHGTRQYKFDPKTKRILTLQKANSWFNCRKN
Description: Inhibition of matrix metalloprotease-1, Collagenase-1.

Another assay concerns the target Stromelysin-1 (Homo sapiens, UniProt P08254). As to the kind of experiment: Inhibition of matrix metalloprotease-3, stromelysin-1.
Assay [1] deals with Matrix metalloproteinase-9 (Homo sapiens, UniProt P14780). As to the kind of experiment: Inhibition of matrix metalloprotease-9, gelatinase-B.
Sequence of Matrix metalloproteinase-9 (P14780 whole entry): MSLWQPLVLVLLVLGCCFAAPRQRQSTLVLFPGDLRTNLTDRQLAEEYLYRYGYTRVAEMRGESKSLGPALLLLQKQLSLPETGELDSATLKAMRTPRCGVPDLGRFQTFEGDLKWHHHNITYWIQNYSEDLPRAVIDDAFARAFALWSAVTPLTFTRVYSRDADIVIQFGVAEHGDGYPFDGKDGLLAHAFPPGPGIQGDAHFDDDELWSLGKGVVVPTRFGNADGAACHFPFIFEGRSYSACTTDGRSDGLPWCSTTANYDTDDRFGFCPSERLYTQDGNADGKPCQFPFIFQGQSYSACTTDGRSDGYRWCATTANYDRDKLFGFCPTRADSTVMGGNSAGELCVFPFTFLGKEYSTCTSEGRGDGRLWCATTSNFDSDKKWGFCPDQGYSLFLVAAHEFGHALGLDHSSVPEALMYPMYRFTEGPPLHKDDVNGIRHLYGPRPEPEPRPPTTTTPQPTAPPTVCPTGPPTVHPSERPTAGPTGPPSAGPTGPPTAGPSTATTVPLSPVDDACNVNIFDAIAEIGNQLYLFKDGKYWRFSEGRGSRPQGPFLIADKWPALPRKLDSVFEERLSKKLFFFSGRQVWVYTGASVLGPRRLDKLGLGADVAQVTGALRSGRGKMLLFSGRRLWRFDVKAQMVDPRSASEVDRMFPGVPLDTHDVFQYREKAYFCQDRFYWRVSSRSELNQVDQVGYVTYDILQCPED

Sequence of Stromelysin-1 (P08254 whole entry): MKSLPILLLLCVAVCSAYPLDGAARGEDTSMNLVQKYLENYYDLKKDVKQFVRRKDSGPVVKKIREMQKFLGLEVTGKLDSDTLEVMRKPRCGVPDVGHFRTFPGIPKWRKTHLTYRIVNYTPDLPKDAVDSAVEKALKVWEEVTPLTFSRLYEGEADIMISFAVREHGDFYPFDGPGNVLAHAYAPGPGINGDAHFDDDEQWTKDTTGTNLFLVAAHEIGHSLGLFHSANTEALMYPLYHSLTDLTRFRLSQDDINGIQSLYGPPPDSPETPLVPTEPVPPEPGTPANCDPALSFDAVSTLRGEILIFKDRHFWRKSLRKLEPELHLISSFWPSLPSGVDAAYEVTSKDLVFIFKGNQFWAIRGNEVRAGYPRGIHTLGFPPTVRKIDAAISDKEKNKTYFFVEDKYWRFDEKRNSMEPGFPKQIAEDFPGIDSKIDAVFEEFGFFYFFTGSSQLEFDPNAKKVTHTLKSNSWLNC

On to `CNC(=O)[C@@H](NC(=O)[C@H](CC(C)C)C[C@@H](O)CS)C(C)(C)C`, for which the results for the IC50 (on Interstitial collagenase; against Stromelysin-1; in assay [1]) were 46 nM, 3700 nM and 250 nM, respectively.
Consider `CCCCCCC[C@H](C[C@H](O)CS)C(=O)N[C@H](C(=O)NC)C(C)(C)C`, for which the concentration for half-maximal inhibition (IC50) – broadly, the concentration at which inhibition is half-maximal – was determined as 5 nM on Interstitial collagenase, 9 nM at Stromelysin-1 and 0.14 nM in assay [1].
The matching figures for `CCCCCCC[C@H](CC(=O)CS)C(=O)N[C@H](C(=O)NC)C(C)(C)C`: 10 nM, 8 nM and 0.14 nM.
Regarding `CCCCCCC[C@H](CC(=O)CS)C(=O)N[C@@H](CC(C)C)C(=O)NC(=O)C(CC(C)C)NCC` (stereo not given in full), the values for the IC50 (at Interstitial collagenase; against Stromelysin-1; in assay [1]) were over 10000 nM, 36 nM and 20 nM, respectively.
The matching figures for `CNC(=O)[C@@H](NC(=O)[C@H](CC(C)C)C[C@H](O)CS)C(C)(C)C`: 11 nM, 470 nM and 8 nM.
Regarding `CCCCCCC[C@H](C[C@@H](O)CS)C(=O)N[C@H](C(=O)NC)C(C)(C)C`, the 50% inhibitory concentration (IC50) against Interstitial collagenase is 140 nM; at Stromelysin-1, 430 nM; in assay [1] it was 12 nM.
For `CNC(=O)[C@@H](NC(=O)[C@@H](CC(=O)CS)CC(C)C)C(C)(C)C` the same measures were 11 nM, 480 nM and 8 nM.
The matching figures for `CCCCCCC[C@H](C[C@H](O)CS)C(=O)N[C@@H](CC(C)C)C(=O)NC(=O)C(CC(C)C)NCC` (stereo not given in full): over 4000 nM, 39 nM and 24 nM.
For the compound `CNC(=O)[C@@H](NC(=O)[C@@H](CC(=O)NO)CC(C)C)C(C)(C)C` [RO-319790], the midpoint of inhibition on Interstitial collagenase, the IC50, lay at 5 nM.
